This passage reports Tm and ΔTm results from ChEMBL document CHEMBL2057188, “Hybridizing ability and nuclease resistance profile of backbone modified cationic phosphorothioate oligonucleotides” (Bioorg Med Chem, 2012).

What all share (format): nucleic-acid assay
In experiment [1] the test system is Nucleic Acid. Put plainly: DNA hybridizing activity at 22 bp double stranded DNA assessed as thermal stability of duplexes formed between compound and complimentary dsDNA by measuring melting temperature at 1.5 uM in presence of 7 mM pH 5.5 sodium phosphate buffer containing 140 mM K, 10 mM MgCl2 by UV based melting experiment.
The subject of experiment [2] is Nucleic Acid. In words: DNA hybridizing activity at single stranded DNA assessed as thermal stability of duplexes formed between compound and complimentary ssDNA by measuring change in melting temperature at 4 uM in presence of 10 mM pH 7.2 sodium phosphate buffer containing 100 mM NaCl by UV based melting experiment relative to untreated control.
In experiment [3] the test system is Nucleic Acid. Put plainly: DNA hybridizing activity at single stranded RNA assessed as thermal stability of duplexes formed between compound and complimentary ssRNA by measuring change in melting temperature at 4 uM in presence of 10 mM pH 7.2 sodium phosphate buffer containing 100 mM NaCl by UV based melting experiment relative to untreated control.
The subject of experiment [4] is Nucleic Acid. In words: DNA hybridizing activity at 22 bp double stranded DNA assessed as thermal stability of duplexes formed between compound and complimentary dsDNA by measuring change in melting temperature at 1.5 uM in presence of 7 mM pH 5.5 sodium phosphate buffer containing 140 mM K, 10 mM MgCl2 by UV based melting experiment.
In experiment [5] the test system is Nucleic Acid. In words: DNA hybridizing activity at single stranded RNA assessed as thermal stability of duplexes formed between compound and complimentary ssRNA by measuring melting temperature at 4 uM in presence of 10 mM pH 7.2 sodium phosphate buffer containing 100 mM NaCl by UV based melting experiment.
The subject of experiment [6] is Nucleic Acid. In words: DNA hybridizing activity at single stranded DNA assessed as thermal stability of duplexes formed between compound and complimentary ssDNA by measuring melting temperature at 4 uM in presence of 10 mM pH 7.2 sodium phosphate buffer containing 100 mM NaCl by UV based melting experiment.

`Cc1cn([C@H]2C[C@H](OP(=O)(O)OC[C@H]3O[C@@H](n4cc(C)c(=O)[nH]c4=O)C[C@@H]3OP(=O)(O)OC[C@H]3O[C@@H](n4cc(C)c(=O)[nH]c4=O)C[C@@H]3O[P@](=O)(OC[C@H]3O[C@@H](n4cc(C)c(=O)[nH]c4=O)C[C@@H]3OP(=O)(O)OC[C@H]3O[C@@H](n4cc(C)c(=O)[nH]c4=O)C[C@@H]3OP(=O)(O)OC[C@H]3O[C@@H](n4cc(C)c(=O)[nH]c4=O)C[C@@H]3OP(=O)(O)OC[C@H]3O[C@@H](n4ccc(N)nc4=O)C[C@@H]3OP(=O)(O)OC[C@H]3O[C@@H](n4ccc(N)nc4=O)C[C@@H]3OP(=O)(O)OC[C@H]3O[C@@H](n4ccc(N)nc4=O)C[C@@H]3OP(=O)(O)O)SCCCN3CCNCC3)[C@@H](COP(=O)(O)O[C@H]3C[C@H](n4ccc(N)nc4=O)O[C@@H]3COP(=O)(O)O[C@H]3C[C@H](n4ccc(N)nc4=O)O[C@@H]3COP(=O)(O)O[C@H]3C[C@H](n4ccc(N)nc4=O)O[C@@H]3CO)O2)c(=O)[nH]c1=O`: the melting temperature (Tm) turned out to be 23 °C with Nucleic Acid [1], 43 °C in the experiment with Nucleic Acid [5] and 41 °C with Nucleic Acid [6]. The ΔTm in the experiment on Nucleic Acid [2] was -1 °C; with Nucleic Acid [3], -3 °C; in the experiment with Nucleic Acid [4], -3 °C.
`Cc1cn([C@H]2C[C@H](OP(=O)(O)OC[C@H]3O[C@@H](n4cc(C)c(=O)[nH]c4=O)C[C@@H]3OP(=O)(O)OC[C@H]3O[C@@H](n4cc(C)c(=O)[nH]c4=O)C[C@@H]3O[P@](=O)(OC[C@H]3O[C@@H](n4cc(C)c(=O)[nH]c4=O)C[C@@H]3OP(=O)(O)OC[C@H]3O[C@@H](n4cc(C)c(=O)[nH]c4=O)C[C@@H]3OP(=O)(O)OC[C@H]3O[C@@H](n4cc(C)c(=O)[nH]c4=O)C[C@@H]3OP(=O)(O)OC[C@H]3O[C@@H](n4ccc(N)nc4=O)C[C@@H]3OP(=O)(O)OC[C@H]3O[C@@H](n4ccc(N)nc4=O)C[C@@H]3OP(=O)(O)OC[C@H]3O[C@@H](n4ccc(N)nc4=O)C[C@@H]3OP(=O)(O)O)SCCCCN)[C@@H](COP(=O)(O)O[C@H]3C[C@H](n4ccc(N)nc4=O)O[C@@H]3COP(=O)(O)O[C@H]3C[C@H](n4ccc(N)nc4=O)O[C@@H]3COP(=O)(O)O[C@H]3C[C@H](n4ccc(N)nc4=O)O[C@@H]3CO)O2)c(=O)[nH]c1=O`: the melting temperature (Tm) in the experiment with Nucleic Acid [1] turned out to be 24 °C; in the experiment on Nucleic Acid [5], 43 °C; in the experiment on Nucleic Acid [6], 40 °C. Besides, the thermal shift (ΔTm) in the experiment with Nucleic Acid [2] is -2 °C; in the experiment on Nucleic Acid [3], -3 °C; in the experiment on Nucleic Acid [4], -2 °C.
Take `Cc1cn([C@H]2C[C@H](OP(=O)(O)OC[C@H]3O[C@@H](n4cc(C)c(=O)[nH]c4=O)C[C@@H]3OP(=O)(O)OC[C@H]3O[C@@H](n4cc(C)c(=O)[nH]c4=O)C[C@@H]3O[P@](=O)(OC[C@H]3O[C@@H](n4cc(C)c(=O)[nH]c4=O)C[C@@H]3OP(=O)(O)OC[C@H]3O[C@@H](n4cc(C)c(=O)[nH]c4=O)C[C@@H]3OP(=O)(O)OC[C@H]3O[C@@H](n4cc(C)c(=O)[nH]c4=O)C[C@@H]3OP(=O)(O)OC[C@H]3O[C@@H](n4ccc(N)nc4=O)C[C@@H]3OP(=O)(O)OC[C@H]3O[C@@H](n4ccc(N)nc4=O)C[C@@H]3OP(=O)(O)OC[C@H]3O[C@@H](n4ccc(N)nc4=O)C[C@@H]3OP(=O)(O)O)SCCNCCN)[C@@H](COP(=O)(O)O[C@H]3C[C@H](n4ccc(N)nc4=O)O[C@@H]3COP(=O)(O)O[C@H]3C[C@H](n4ccc(N)nc4=O)O[C@@H]3COP(=O)(O)O[C@H]3C[C@H](n4ccc(N)nc4=O)O[C@@H]3CO)O2)c(=O)[nH]c1=O`: the melting temperature (Tm) in the experiment on Nucleic Acid [1] was found to be 25 °C; in the experiment with Nucleic Acid [5], 44 °C; in the experiment with Nucleic Acid [6], 40 °C. For the same compound, the shift in melting temperature (ΔTm) in the experiment on Nucleic Acid [2] was -2 °C; in the experiment on Nucleic Acid [3], -2 °C; with Nucleic Acid [4] it was -1 °C.

As usually defined, the Tm is the temperature at which the thermal transition is half complete. In general, ΔTm refers to the change in melting temperature against a reference sample.
